The subject of one data set is MRC5. Put plainly: Cytotoxicity against human MRC5 cells assessed as reduction in cell viability incubated for 3 days by resazurin dye based fluorescence assay. The conditions noted are these: MRC5, 72 h. A general note: Resazurin is reduced to fluorescent resorufin, in cell work by metabolically active cells.
Data set [1] relates to Trypanosoma brucei brucei. Put plainly: Antitrypanosomal activity against Trypanosoma brucei brucei assessed as reduction in parasite growth incubated for 3 days by resazurin dye based fluorescence assay. The conditions noted are these: 72 h. The class given is functional, organism-based.
The test system of data set [2] is Trypanosoma brucei rhodesiense. Put plainly: Antitrypanosomal activity against Trypanosoma brucei rhodesiense assessed as reduction in parasite growth incubated for 3 days by resazurin dye based fluorescence assay. The class given is functional, organism-based. The conditions noted are these: 72 h.
The nature of data set [3]: Selectivity index, ratio of EC50 for cytotoxicity against human MRC5 cells to EC50 for antitrypanosomal activity against Trypanosoma brucei brucei. Particulars: read-out: Ratio EC50. The format is toxicity, cell-based.
Data set [4] is described as follows: Selectivity index, ratio of EC50 for cytotoxicity against human MRC5 cells to EC50 for antitrypanosomal activity against Trypanosoma brucei rhodesiense. The class given is toxicity, cell-based. Particulars: read-out: Ratio EC50.
Data set [5] can be described thus: Resistance factor, ratio of EC50 for antitrypanosomal activity against drug resistant Trypanosoma brucei harboring TbAT1 deficient to antitrypanosomal activity against Trypanosoma brucei brucei Lister 427 blood stream form. The class given is functional.
Data set [6] can be described thus: Resistance factor, ratio of EC50 for antitrypanosomal activity against drug resistant Trypanosoma brucei B48 to antitrypanosomal activity against Trypanosoma brucei brucei Lister 427 blood stream form. The format is functional.
Data set [7] is described as follows: Resistance factor, ratio of EC50 for antitrypanosomal activity against drug resistant Trypanosoma brucei ISMR1 to antitrypanosomal activity against Trypanosoma brucei brucei Lister 427 blood stream form. The class given is functional.

Broadly, the EC50 is the concentration giving half of the maximal effect. As to `CC(C)COc1ncnc2c1c(Cl)cn2[C@@H]1O[C@H](CO)[C@@H](O)[C@H]1O`, the EC50 with MRC5 came to 49.5 µM; in data set [1], 0.071 µM; in data set [2], 0.03 µM. Further, the figures for the selectivity ratio in data set [3] and in data set [4] were 694 and 1670, respectively.
As to `COc1ncnc2c1c(-c1ccccc1)cn2[C@@H]1O[C@H](CO)[C@@H](O)[C@H]1O`, the EC50 (in the data set on MRC5; in data set [1]; in data set [2]) was greater than 64 µM in each case.
`COc1ncnc2c1c(Br)cn2[C@@H]1O[C@H](CO)C[C@H]1O`: the EC50 was 2.7 µM in the data set on MRC5, 2.6 µM in data set [1] and 3.7 µM in data set [2]. Also, the figures for the selectivity ratio in data set [3] and in data set [4] were 1 and 0.7, respectively.
Regarding `N=C(N)c1ccc(OCCCCCOc2ccc(C(=N)N)cc2)cc1`, the Ratio EC50 stood at 1.8 in data set [5], 94.6 in data set [6] and 13.8 in data set [7].
For `O=c1[nH]cnc2c1c(Br)cn2[C@@H]1O[C@H](CO)C[C@H]1O`, the EC50 was greater than 64 µM in the data set with MRC5, 8.1 µM in data set [1] and 23 µM in data set [2]. Also, the selectivity ratio is greater than 7 in data set [3] and greater than 28 in data set [4].
In the same order, the values of `CCCOc1ncnc2c1c(Cl)cn2[C@@H]1O[C@H](CO)[C@@H](O)[C@H]1O` are 2.81 µM, 0.081 µM, 0.076 µM, 34 and 37.
As for `O=c1[nH]cnc2c1c(Cl)cn2[C@@H]1O[C@H](CO)[C@@H](O)[C@H]1O`, the values for the EC50 (in the data set with MRC5; in data set [1]; in data set [2]) were greater than 64 µM, 10.7 µM and 25.1 µM, respectively. Also, the figures for the selectivity ratio in data set [3] and in data set [4] were greater than 6 and greater than 2.5, respectively.
For `N=C(N)c1ccc(/N=N/Nc2ccc(C(=N)N)cc2)cc1`, the results for the Ratio EC50 in data set [5], in data set [6] and in data set [7] were 10.6, 16.9 and 6.9, respectively.
Take `COc1ncnc2c1c(I)cn2[C@@H]1O[C@H](CO)[C@@H](O)[C@H]1O`: the results for the EC50 (in the data set with MRC5; in data set [1]; in data set [2]) were 38.4 µM, 0.22 µM and 0.053 µM, respectively. Besides, the selectivity ratio in data set [3] was found to be 168; in data set [4], 708.
Turning to `COc1ncnc2c1ccn2[C@@H]1O[C@H](CO)C[C@H]1O`, the EC50 (with MRC5; in data set [1]; in data set [2]) was greater than 64 µM in each case.
Turning to `O=c1[nH]cnc2c1ccn2[C@@H]1O[C@H](CO)[C@@H](O)[C@H]1O` [IMMUNICILLIN H], the EC50 in the data set with MRC5 was 31.3 µM; in data set [1], 4.2 µM; in data set [2] it was 19.1 µM. The selectivity ratio amounted to 7.4 in data set [3] and 1.6 in data set [4].
The like results for `OC[C@H]1O[C@@H](n2cc(Cl)c3c(OC4CCCC4)ncnc32)[C@H](O)[C@@H]1O` were, in that order, 38.1 µM, 0.2 µM, 0.12 µM, 191 and 326.
Take `O=c1[nH]cnc2c1c(I)cn2[C@@H]1O[C@H](CO)[C@@H](O)[C@H]1O`: the EC50 in the data set with MRC5 is greater than 64 µM; in data set [1], 57.3 µM; in data set [2] it was 23.9 µM. In addition, the selectivity ratio in data set [3] is greater than 1.1; in data set [4], greater than 2.7.
The like results for `OC[C@H]1O[C@@H](n2cc(Cl)c3c(OCCOc4ccccc4)ncnc32)[C@H](O)[C@@H]1O` were, in that order, 43.2 µM, 0.13 µM, 0.16 µM, 329 and 263.
In the same order, the values of `CCCCCOc1ncnc2c1c(Cl)cn2[C@@H]1O[C@H](CO)[C@@H](O)[C@H]1O` are 0.1 µM, 0.088 µM, 0.032 µM, 1.1 and 3.2.
The like results for `O=c1[nH]cnc2c1c(F)cn2[C@@H]1O[C@H](CO)[C@@H](O)[C@H]1O` were, in that order, 2.03 µM, 0.1 µM, 1.06 µM, 21 and 1.9.
For the compound `O=c1[nH]cnc2c1ncn2[C@@H]1O[C@H](CO)C[C@H]1O`, the EC50 in the data set on MRC5 is greater than 64 µM; in data set [1], 1.1 µM; in data set [2] it was 6.7 µM.
As to `Cc1nc2c(ccn2[C@@H]2O[C@H](CO)[C@@H](O)[C@H]2O)c(=O)[nH]1`, the EC50 with MRC5 is greater than 64 µM; in data set [1], greater than 64 µM; in data set [2] it was 4.7 µM. The selectivity ratio in data set [4] was greater than 13.
On to `Nc1nc(O)c2ccn([C@@H]3O[C@H](CO)C[C@H]3O)c2n1`, for which the EC50 (with MRC5; in data set [1]; in data set [2]) was greater than 64 µM throughout.
As for `O=c1[nH]cnc2c1c(Br)cn2[C@@H]1O[C@H](CO)[C@@H](O)[C@H]1O`, the EC50 is greater than 64 µM in the data set on MRC5, 52.4 µM in data set [1] and 29.2 µM in data set [2]. In addition, the figures for the selectivity ratio in data set [3] and in data set [4] were greater than 1.2 and 22, respectively.
The like results for `O=c1[nH]cnc2c1c(-c1ccccc1)cn2[C@@H]1O[C@H](CO)[C@@H](O)[C@H]1O` were, in that order, greater than 64 µM, 32.2 µM, 9.4 µM, greater than 2 and greater than 6.8.
In the same order, the values of `CCCCOc1ncnc2c1c(Cl)cn2[C@@H]1O[C@H](CO)[C@@H](O)[C@H]1O` are 1.32 µM, 0.069 µM, 0.036 µM, 19 and 37.
In the same order, the values of `O=c1[nH]cnc2c1ccn2[C@@H]1O[C@H](CO)C[C@H]1O` are greater than 64 µM, 29.6 µM, 2.9 µM, greater than 2 and greater than 22.
Turning to `OC[C@H]1O[C@@H](n2cc(Cl)c3c(OCCc4ccccc4)ncnc32)[C@H](O)[C@@H]1O`, the EC50 in the data set on MRC5 was determined as 0.31 µM; in data set [1], 0.095 µM; in data set [2], 0.03 µM. Also, the selectivity ratio in data set [3] was 3.3; in data set [4] it was 10.3.
The like results for `OC[C@H]1O[C@@H](n2cc(Cl)c3c(OC4CCCCC4)ncnc32)[C@H](O)[C@@H]1O` were, in that order, greater than 64 µM, 0.4 µM, 0.38 µM, greater than 161 and greater than 168.
Take `Nc1nc(Cl)c2ccn([C@@H]3O[C@H](CO)[C@@H](O)[C@H]3O)c2n1`: the figures for the EC50 (in the data set with MRC5; in data set [1]; in data set [2]) were greater than 64 µM, 0.49 µM and 0.18 µM, respectively. The selectivity ratio in data set [3] was greater than 131; in data set [4], greater than 347.
The like results for `COc1nc(N)nc2c1c(Br)cn2[C@@H]1O[C@H](CO)[C@@H](O)[C@H]1O` were, in that order, 3.24 µM, 0.13 µM, 0.077 µM, 24 and 42.
Turning to `COc1ncnc2c1c(-c1ccc(Cl)cc1)cn2[C@@H]1O[C@H](CO)[C@@H](O)[C@H]1O`, the EC50 in the data set with MRC5 was 61.1 µM; in data set [1], greater than 64 µM; in data set [2] it was 22.3 µM. Besides, in data set [4], the selectivity ratio was 2.7.
Take `CC(C)CCOc1ncnc2c1c(Cl)cn2[C@@H]1O[C@H](CO)[C@@H](O)[C@H]1O`: the figures for the EC50 (in the data set on MRC5; in data set [1]; in data set [2]) were greater than 64 µM, 0.058 µM and 0.029 µM, respectively. Further, the values for the selectivity ratio in data set [3] and in data set [4] were greater than 1100 and greater than 2200, respectively.
As for `OC[C@H]1O[C@@H](n2cc(C(F)(F)F)c3c(O)ncnc32)[C@H](O)[C@@H]1O`, the EC50 in the data set on MRC5 was 3.28 µM; in data set [1], greater than 64 µM; in data set [2], 10.9 µM. Also, the selectivity ratio in data set [3] turned out to be 0.1; in data set [4], 0.3.
In the same order, the values of `Nc1nc2c(c(Br)cn2[C@@H]2O[C@H](CO)[C@@H](O)[C@H]2O)c(=O)[nH]1` are greater than 64 µM, 2.01 µM, 0.49 µM, greater than 31 and greater than 130.
`Nc1nc2c(ccn2[C@@H]2O[C@H](CO)[C@@H](O)[C@H]2O)c(=O)[nH]1`: the EC50 in the data set on MRC5 was greater than 64 µM; in data set [1], greater than 64 µM; in data set [2], 12.9 µM. Also, the selectivity ratio in data set [4] was greater than 5.
On to `Nc1ncc2ccn([C@@H]3O[C@H](CO)[C@@H](O)[C@H]3O)c2n1`, for which the EC50 (with MRC5; in data set [1]; in data set [2]) was greater than 64 µM each time.
For `Nc1nc(Cl)c2c(Br)cn([C@@H]3O[C@H](CO)[C@@H](O)[C@H]3O)c2n1`, the EC50 in the data set on MRC5 was determined as 40.2 µM; in data set [1] it was 0.13 µM; in data set [2] it was 0.047 µM. The selectivity ratio in data set [3] was 316; in data set [4], 847.
In the same order, the values of `COCCOc1ncnc2c1c(Cl)cn2[C@@H]1O[C@H](CO)[C@@H](O)[C@H]1O` are 4.13 µM, 0.17 µM, 0.22 µM, 25 and 18.8.
Take `Cc1ccc(C(=O)Nc2ccc(S(=O)(=O)O)c3cc(S(=O)(=O)O)cc(S(=O)(=O)O)c23)cc1NC(=O)c1cccc(NC(=O)Nc2cccc(C(=O)Nc3cc(C(=O)Nc4ccc(S(=O)(=O)O)c5cc(S(=O)(=O)O)cc(S(=O)(=O)O)c45)ccc3C)c2)c1` [SURAMIN]: the results for the concentration for a half-maximal effect (EC50) in data set [1] and in data set [2] were 0.028 µM and 0.033 µM, respectively.

These data come from ChEMBL document CHEMBL4680158, “C6-O-alkylated 7-deazainosine nucleoside analogues: Discovery of potent and selective anti-sleeping sickness agents” (Eur J Med Chem, 2020).
